According to ChEMBL document CHEMBL4507294, “Data for DCP probe MSD-CYP11B2” (2021):

Experiments:
[1] = molecular target: Ribosomal protein S6 kinase beta-1 (Homo sapiens) (UniProt P23443); conditions: Compound concentration 1000.0 nM
[2] = molecular target: Cyclin-dependent kinase 11A (Homo sapiens) (UniProt Q9UQ88); conditions: Compound concentration 1000.0 nM
[3] = molecular target: Cyclin-dependent kinase 16 (Homo sapiens) (UniProt Q00536); conditions: Compound concentration 1000.0 nM
[4] = molecular target: Serine/threonine-protein kinase NLK (Homo sapiens) (UniProt Q9UBE8); conditions: Compound concentration 1000.0 nM
[5] = molecular target: Serine/threonine-protein kinase 25 (Homo sapiens) (UniProt O00506); conditions: Compound concentration 1000.0 nM
[6] = molecular target: RAC-gamma serine/threonine-protein kinase (Homo sapiens) (UniProt Q9Y243); conditions: Compound concentration 1000.0 nM
[7] = molecular target: Casein kinase II subunit alpha (Homo sapiens) (UniProt P68400); conditions: Compound concentration 1000.0 nM
[8] = molecular target: Sigma non-opioid intracellular receptor 1 (Homo sapiens) (UniProt Q99720); conditions: Compound concentration 10.0 uM
[9] = molecular target: Cyclin-dependent kinase 15 (Homo sapiens) (UniProt Q96Q40); conditions: Compound concentration 1000.0 nM
[10] = molecular target: 3-phosphoinositide-dependent protein kinase 1 (Homo sapiens) (UniProt O15530); conditions: Compound concentration 1000.0 nM
[11] = system: Epidermal growth factor receptor (Homo sapiens), P00533 [L858R,T790M]; conditions: Compound concentration 1000.0 nM
[12] = molecular target: Fibroblast growth factor receptor 2 (Homo sapiens) (UniProt P21802); conditions: Compound concentration 1000.0 nM
[13] = system: Tyrosine-protein kinase ABL1 (Homo sapiens), P00519 [F317L]; conditions: Compound concentration 1000.0 nM
Chain of Tyrosine-protein kinase ABL1 (Homo sapiens), P00519 [F317L] (P00519 whole entry F317L, the tested form may be a part): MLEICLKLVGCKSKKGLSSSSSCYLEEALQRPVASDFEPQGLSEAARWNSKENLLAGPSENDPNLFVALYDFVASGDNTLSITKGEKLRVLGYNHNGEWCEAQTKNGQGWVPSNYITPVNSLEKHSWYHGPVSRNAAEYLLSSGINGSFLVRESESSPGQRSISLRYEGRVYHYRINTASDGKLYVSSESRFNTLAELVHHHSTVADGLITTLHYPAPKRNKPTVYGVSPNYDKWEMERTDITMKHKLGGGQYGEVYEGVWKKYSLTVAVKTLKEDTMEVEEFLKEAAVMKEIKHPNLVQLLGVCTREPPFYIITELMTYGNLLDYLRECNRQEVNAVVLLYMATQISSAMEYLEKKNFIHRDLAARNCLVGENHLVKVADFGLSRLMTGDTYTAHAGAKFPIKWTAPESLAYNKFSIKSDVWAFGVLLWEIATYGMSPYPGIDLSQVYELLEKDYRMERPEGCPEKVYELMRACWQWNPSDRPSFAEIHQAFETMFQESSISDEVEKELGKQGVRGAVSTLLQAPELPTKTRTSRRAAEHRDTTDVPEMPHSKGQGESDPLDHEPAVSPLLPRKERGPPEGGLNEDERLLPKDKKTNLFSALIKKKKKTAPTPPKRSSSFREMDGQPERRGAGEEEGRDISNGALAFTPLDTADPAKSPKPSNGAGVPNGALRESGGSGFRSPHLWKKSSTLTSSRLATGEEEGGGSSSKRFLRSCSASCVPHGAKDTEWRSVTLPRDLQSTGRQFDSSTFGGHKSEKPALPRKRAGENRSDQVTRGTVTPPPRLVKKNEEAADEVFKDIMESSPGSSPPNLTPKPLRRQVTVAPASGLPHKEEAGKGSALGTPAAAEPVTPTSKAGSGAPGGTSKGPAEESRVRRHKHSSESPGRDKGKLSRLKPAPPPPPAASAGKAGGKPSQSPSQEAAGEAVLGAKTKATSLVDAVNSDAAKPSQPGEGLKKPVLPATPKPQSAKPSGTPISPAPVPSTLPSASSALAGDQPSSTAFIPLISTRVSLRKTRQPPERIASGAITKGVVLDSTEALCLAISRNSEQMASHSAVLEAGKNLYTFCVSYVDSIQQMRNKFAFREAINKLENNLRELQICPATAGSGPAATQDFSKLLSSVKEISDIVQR

[14] = molecular target: Ankyrin repeat and protein kinase domain-containing protein 1 (Homo sapiens) (UniProt Q8NFD2); conditions: Compound concentration 1000.0 nM
Chain of Ankyrin repeat and protein kinase domain-containing protein 1 (Homo sapiens) (Q8NFD2 whole entry, the tested form may be a part): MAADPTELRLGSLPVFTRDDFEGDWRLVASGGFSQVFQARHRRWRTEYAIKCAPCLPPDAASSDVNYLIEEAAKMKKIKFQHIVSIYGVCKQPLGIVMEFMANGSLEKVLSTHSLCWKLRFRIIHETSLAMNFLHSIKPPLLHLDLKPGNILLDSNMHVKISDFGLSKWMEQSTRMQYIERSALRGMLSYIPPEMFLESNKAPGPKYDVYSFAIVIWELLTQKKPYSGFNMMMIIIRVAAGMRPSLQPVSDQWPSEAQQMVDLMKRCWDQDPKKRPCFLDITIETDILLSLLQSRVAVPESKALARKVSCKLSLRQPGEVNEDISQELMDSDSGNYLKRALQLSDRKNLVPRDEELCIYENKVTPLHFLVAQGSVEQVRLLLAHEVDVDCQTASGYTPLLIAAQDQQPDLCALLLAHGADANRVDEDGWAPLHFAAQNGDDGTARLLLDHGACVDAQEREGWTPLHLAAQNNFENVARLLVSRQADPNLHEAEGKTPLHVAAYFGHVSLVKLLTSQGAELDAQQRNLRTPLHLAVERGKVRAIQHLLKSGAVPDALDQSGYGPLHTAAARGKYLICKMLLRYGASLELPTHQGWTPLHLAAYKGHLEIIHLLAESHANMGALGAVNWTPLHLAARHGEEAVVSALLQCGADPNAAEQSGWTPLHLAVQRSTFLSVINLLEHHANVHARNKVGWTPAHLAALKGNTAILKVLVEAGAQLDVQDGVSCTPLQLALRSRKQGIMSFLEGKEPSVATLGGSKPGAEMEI

[15] = system: Proto-oncogene tyrosine-protein kinase receptor Ret (Homo sapiens), P07949 [M918T]; conditions: Compound concentration 1000.0 nM
[16] = molecular target: Casein kinase I isoform epsilon (Homo sapiens) (UniProt P49674); conditions: Compound concentration 1000.0 nM
Chain of Casein kinase I isoform epsilon (Homo sapiens) (P49674 whole entry, looked up, canonical isoform): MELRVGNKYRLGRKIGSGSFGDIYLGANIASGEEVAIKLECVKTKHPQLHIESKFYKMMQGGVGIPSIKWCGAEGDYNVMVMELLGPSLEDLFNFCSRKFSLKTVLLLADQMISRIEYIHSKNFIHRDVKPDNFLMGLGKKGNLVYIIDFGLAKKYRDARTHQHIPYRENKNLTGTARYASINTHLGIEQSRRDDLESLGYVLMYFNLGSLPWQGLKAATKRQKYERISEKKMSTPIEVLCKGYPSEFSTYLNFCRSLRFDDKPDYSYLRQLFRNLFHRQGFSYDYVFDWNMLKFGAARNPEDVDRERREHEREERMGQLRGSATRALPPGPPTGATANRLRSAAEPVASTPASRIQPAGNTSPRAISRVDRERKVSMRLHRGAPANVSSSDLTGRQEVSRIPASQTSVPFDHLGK

[17] = molecular target: Mitogen-activated protein kinase 15 (Homo sapiens) (UniProt Q8TD08); conditions: Compound concentration 1000.0 nM
[18] = molecular target: Mitogen-activated protein kinase kinase kinase 15 (Homo sapiens) (UniProt Q6ZN16); conditions: Compound concentration 1000.0 nM
[19] = molecular target: Mitogen-activated protein kinase kinase kinase 13 (Homo sapiens) (UniProt O43283); conditions: Compound concentration 1000.0 nM
[20] = molecular target: Dual specificity tyrosine-phosphorylation-regulated kinase 2 (Homo sapiens) (UniProt Q92630); conditions: Compound concentration 1000.0 nM
[21] = system: Epidermal growth factor receptor (Homo sapiens), P00533 [T790M]; conditions: Compound concentration 1000.0 nM
[22] = molecular target: Cyclin-dependent kinase 4 (Homo sapiens) (UniProt P11802); conditions: Compound concentration 1000.0 nM
[23] = molecular target: Serine/threonine-protein kinase Chk1 (Homo sapiens) (UniProt O14757); conditions: Compound concentration 1000.0 nM
[24] = molecular target: Dual specificity mitogen-activated protein kinase kinase 6 (Homo sapiens) (UniProt P52564); conditions: Compound concentration 1000.0 nM
[25] = molecular target: Discoidin domain-containing receptor 2 (Homo sapiens) (UniProt Q16832); conditions: Compound concentration 1000.0 nM
[26] = system: Tyrosine-protein kinase ABL1 (Homo sapiens), P00519 [F317I]; conditions: Compound concentration 1000.0 nM
[27] = molecular target: Serine/threonine-protein kinase Nek10 (Homo sapiens) (UniProt Q6ZWH5); conditions: Compound concentration 1000.0 nM
Chain of Serine/threonine-protein kinase Nek10 (Homo sapiens) (Q6ZWH5 whole entry): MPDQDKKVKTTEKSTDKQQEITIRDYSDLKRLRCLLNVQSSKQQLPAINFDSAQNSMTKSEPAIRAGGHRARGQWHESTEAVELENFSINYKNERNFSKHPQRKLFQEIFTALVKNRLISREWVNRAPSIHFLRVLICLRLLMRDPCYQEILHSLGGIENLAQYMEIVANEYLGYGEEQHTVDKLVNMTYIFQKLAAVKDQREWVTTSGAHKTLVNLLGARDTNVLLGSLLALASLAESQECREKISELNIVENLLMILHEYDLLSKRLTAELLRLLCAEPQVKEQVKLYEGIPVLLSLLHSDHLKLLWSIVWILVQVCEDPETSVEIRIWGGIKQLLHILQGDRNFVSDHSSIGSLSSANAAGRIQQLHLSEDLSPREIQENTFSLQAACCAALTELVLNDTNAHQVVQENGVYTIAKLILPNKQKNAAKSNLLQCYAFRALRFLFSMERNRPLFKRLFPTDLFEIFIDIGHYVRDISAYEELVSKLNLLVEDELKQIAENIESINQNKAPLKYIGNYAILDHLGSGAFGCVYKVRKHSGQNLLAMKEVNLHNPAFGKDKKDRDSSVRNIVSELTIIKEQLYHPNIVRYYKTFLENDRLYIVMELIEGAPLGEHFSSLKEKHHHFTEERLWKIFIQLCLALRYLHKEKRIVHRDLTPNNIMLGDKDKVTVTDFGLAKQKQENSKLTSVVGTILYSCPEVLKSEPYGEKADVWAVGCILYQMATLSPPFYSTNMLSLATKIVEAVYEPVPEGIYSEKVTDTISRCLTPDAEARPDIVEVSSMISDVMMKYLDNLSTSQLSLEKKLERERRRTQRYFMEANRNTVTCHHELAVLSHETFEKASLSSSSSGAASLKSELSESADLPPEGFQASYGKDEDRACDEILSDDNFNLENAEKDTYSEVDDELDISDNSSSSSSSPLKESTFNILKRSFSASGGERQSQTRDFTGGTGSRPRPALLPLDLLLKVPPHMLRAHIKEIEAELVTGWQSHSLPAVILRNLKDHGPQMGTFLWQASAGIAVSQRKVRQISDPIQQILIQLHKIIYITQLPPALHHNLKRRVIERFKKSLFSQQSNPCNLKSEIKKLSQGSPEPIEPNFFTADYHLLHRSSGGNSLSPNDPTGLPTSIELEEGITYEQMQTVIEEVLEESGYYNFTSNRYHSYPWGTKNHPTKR

[28] = molecular target: Membrane-associated tyrosine- and threonine-specific cdc2-inhibitory kinase (Homo sapiens) (UniProt Q99640); conditions: Compound concentration 1000.0 nM
[29] = molecular target: Beta-3 adrenergic receptor (Homo sapiens) (UniProt P13945); conditions: Compound concentration 10.0 uM
[30] = molecular target: Calcium/calmodulin-dependent protein kinase type IV (Homo sapiens) (UniProt Q16566); conditions: Compound concentration 1000.0 nM
[31] = molecular target: Serine/threonine-protein kinase PAK 1 (Homo sapiens) (UniProt Q13153); conditions: Compound concentration 1000.0 nM
[32] = molecular target: Ephrin type-A receptor 1 (Homo sapiens) (UniProt P21709); conditions: Compound concentration 1000.0 nM
[33] = system: Tyrosine-protein kinase ABL1 (Homo sapiens), P00519 [E255K]; conditions: Compound concentration 1000.0 nM
[34] = molecular target: Phosphatidylinositol 5-phosphate 4-kinase type-2 beta (Homo sapiens) (UniProt P78356); conditions: Compound concentration 1000.0 nM
[35] = molecular target: Myosin-IIIa (Homo sapiens) (UniProt Q8NEV4); conditions: Compound concentration 1000.0 nM
[36] = molecular target: Ribosomal protein S6 kinase alpha-4 (Homo sapiens) (UniProt O75676); conditions: Compound concentration 1000.0 nM
[37] = molecular target: Phosphatidylinositol 4-phosphate 5-kinase type-1 alpha (Homo sapiens) (UniProt Q99755); conditions: Compound concentration 1000.0 nM
Chain of Phosphatidylinositol 4-phosphate 5-kinase type-1 alpha (Homo sapiens) (Q99755 whole entry): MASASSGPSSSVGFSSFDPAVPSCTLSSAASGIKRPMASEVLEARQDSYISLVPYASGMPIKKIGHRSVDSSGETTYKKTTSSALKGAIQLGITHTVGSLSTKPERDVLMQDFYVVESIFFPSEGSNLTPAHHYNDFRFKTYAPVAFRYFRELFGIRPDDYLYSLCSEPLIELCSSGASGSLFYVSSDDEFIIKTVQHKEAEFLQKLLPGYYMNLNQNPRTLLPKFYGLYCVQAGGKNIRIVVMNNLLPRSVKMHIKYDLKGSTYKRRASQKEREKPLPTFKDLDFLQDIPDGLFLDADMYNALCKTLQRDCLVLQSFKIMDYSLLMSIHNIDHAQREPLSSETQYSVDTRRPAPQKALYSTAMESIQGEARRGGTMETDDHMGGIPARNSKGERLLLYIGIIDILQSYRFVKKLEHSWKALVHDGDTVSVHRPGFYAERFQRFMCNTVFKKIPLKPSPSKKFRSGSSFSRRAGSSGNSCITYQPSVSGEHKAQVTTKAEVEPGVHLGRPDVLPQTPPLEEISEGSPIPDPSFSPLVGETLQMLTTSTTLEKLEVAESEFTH

[38] = molecular target: Tyrosine-protein kinase Blk (Homo sapiens) (UniProt P51451); conditions: Compound concentration 1000.0 nM
[39] = molecular target: Ribosomal protein S6 kinase alpha-6 (Homo sapiens) (UniProt Q9UK32); conditions: Compound concentration 1000.0 nM
[40] = molecular target: Dual specificity mitogen-activated protein kinase kinase 2 (Homo sapiens) (UniProt P36507); conditions: Compound concentration 1000.0 nM
[41] = molecular target: Serine/threonine-protein kinase Sgk1 (Homo sapiens) (UniProt O00141); conditions: Compound concentration 1000.0 nM
[42] = molecular target: D(4) dopamine receptor (Homo sapiens) (UniProt P21917); conditions: Compound concentration 10.0 uM
Chain of D(4) dopamine receptor (Homo sapiens) (P21917 whole entry): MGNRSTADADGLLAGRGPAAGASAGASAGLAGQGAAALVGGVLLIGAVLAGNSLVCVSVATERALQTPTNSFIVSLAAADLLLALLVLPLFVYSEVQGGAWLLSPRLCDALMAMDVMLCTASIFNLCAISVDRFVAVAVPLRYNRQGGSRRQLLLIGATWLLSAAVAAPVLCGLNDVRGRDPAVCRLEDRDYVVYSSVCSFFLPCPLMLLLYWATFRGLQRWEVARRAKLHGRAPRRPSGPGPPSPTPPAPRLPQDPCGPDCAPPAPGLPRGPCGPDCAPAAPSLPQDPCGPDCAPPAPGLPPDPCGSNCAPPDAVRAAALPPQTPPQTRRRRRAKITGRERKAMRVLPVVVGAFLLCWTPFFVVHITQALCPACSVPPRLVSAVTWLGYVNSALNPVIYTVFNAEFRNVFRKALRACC

[43] = molecular target: Megakaryocyte-associated tyrosine-protein kinase (Homo sapiens) (UniProt P42679); conditions: Compound concentration 1000.0 nM
[44] = molecular target: Dual specificity protein kinase CLK3 (Homo sapiens) (UniProt P49761); conditions: Compound concentration 1000.0 nM
[45] = molecular target: Hepatocyte growth factor receptor (Homo sapiens) (UniProt P08581); conditions: Compound concentration 1000.0 nM

Chain of Cyclin-dependent kinase 16 (Homo sapiens) (Q00536 whole entry): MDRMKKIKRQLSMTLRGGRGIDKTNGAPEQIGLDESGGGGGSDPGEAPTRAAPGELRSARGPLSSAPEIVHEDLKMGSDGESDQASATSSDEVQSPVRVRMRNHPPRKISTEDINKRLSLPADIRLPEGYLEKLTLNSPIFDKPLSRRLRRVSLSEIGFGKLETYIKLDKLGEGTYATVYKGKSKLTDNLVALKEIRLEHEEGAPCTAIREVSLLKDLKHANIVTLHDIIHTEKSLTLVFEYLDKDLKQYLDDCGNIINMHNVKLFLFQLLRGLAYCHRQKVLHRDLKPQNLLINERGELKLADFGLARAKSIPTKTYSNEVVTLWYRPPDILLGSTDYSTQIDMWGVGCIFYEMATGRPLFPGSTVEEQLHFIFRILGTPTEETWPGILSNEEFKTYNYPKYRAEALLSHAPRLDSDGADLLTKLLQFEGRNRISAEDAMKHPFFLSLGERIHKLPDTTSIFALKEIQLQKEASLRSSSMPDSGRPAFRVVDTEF

FC(F)(F)c1ccc2c(c1)nc(-c1cccnc1)n2C1CC1 [MSD-CYP11B2-Negative-control]
inactive: residual activity [1] 100% | residual activity [2] 100% | residual activity [3] 100% | residual activity [4] 100% | residual activity [5] 99% | residual activity [6] 100% | residual activity [7] 100% | inhibition [8] 16.9% | residual activity [9] 100% | residual activity [10] 94% | residual activity [11] 100% | residual activity [12] 100% | residual activity [13] 100% | residual activity [14] 100% | residual activity [15] 91% | residual activity [16] 100% | residual activity [17] 100% | residual activity [18] 100% | residual activity [19] 100% | residual activity [20] 100% | residual activity [21] 87% | residual activity [22] 100% | residual activity [23] 100% | residual activity [24] 98% | residual activity [25] 100% | residual activity [26] 100% | residual activity [27] 100% | residual activity [28] 100% | inhibition [29] -1.88% | residual activity [30] 100% | residual activity [31] 100% | residual activity [32] 100% | residual activity [33] 100% | residual activity [34] 82% | residual activity [35] 100% | residual activity [36] 100% | residual activity [37] 71% | residual activity [38] 96% | residual activity [39] 100% | residual activity [40] 100% | residual activity [41] 100% | inhibition [42] -3.28% | residual activity [43] 100% | residual activity [44] 100% | residual activity [45] 100%

CC(C)(O)c1cncc(-c2nc3ccc(F)cc3n2C2CC2)c1 [MSD-CYP11B2]
inactive: residual activity [1] 100% | residual activity [2] 100% | residual activity [3] 100% | residual activity [4] 100% | residual activity [5] 100% | residual activity [6] 100% | residual activity [7] 100% | inhibition [8] 27.7% | residual activity [9] 84% | residual activity [10] 97% | residual activity [11] 92% | residual activity [12] 100% | residual activity [13] 100% | residual activity [14] 100% | residual activity [15] 100% | residual activity [16] 100% | residual activity [17] 90% | residual activity [18] 100% | residual activity [19] 100% | residual activity [20] 100% | residual activity [21] 90% | residual activity [22] 100% | residual activity [23] 100% | residual activity [24] 100% | residual activity [25] 100% | residual activity [26] 100% | residual activity [27] 100% | residual activity [28] 100% | inhibition [29] 16.7% | residual activity [30] 100% | residual activity [31] 100% | residual activity [32] 100% | residual activity [33] 100% | residual activity [34] 99% | residual activity [35] 100% | residual activity [36] 100% | residual activity [37] 76% | residual activity [38] 98% | residual activity [39] 100% | residual activity [40] 100% | residual activity [41] 100% | inhibition [42] -5.72% | residual activity [43] 100% | residual activity [44] 100% | residual activity [45] 100%
